The values below come from patent US8993593B2, “N-(4-(6-fluoro-3,4-dihydroisoquinolin-2(1H)-yl)-2,6-dimethylphenyl)-3,3-dimethylbutanamide as potassium channel modulators” (Valeant Pharmaceuticals International, priority 2006, dated 2015).

The test system of assay [1] is mouse maximal electroshock seizure (MES) model. Description: Maximal electroshock seizure (MES) test, mouse. It is filed as in vivo. To be noted: Mus musculus, po; murine MES model, dosed orally 2 hours prior to testing; read-out: ED50, inhibition of seizures. An excerpt: (§1) The MES testing protocol is based on procedures established at the National Institute of Neurological Disorders and Stroke in conjunction with the Anticonvulsant Screening Program (ASP) at the University of Utah (White, H. S., Woodhead, J. H., Wilcox, K. S., Stables, J. P., Kupferberg, H. J and Wolf, H. H. 2002. “General Principles: Discovery and Preclinical Development of Antiepileptic Drugs,” in Antiepileptic Drugs, 5th Edition, R. H. Levy, ed.; R. H. Mattson, B. S. Meldrum, and E. Perucca. Philadelphia, Lippincott Williams & Wilkins.), The goal of the test rapid identification and characterization of the in vivo anticonvulsant activity of any compounds that have been shown active in PC-12 cellular based Rb^+ efflux assay.
(§2) Adult male CF-I albino mice (18-25 g, Charles River Laboratories) are exclusively used for in-house MES screen of compounds. Male Sprague-Dawley albino rats (100-125 g, Charles River Laboratories) are also used to test anticonvulsant compounds. Variability of test outcomes is reduced by using animals of the same sex, age, and weight. Animals are permitted to rest and recover from transit for at least 48 hr prior to experimentation. Animals are used for AED testing only once. In some instances, the animals may be anesthetized prior to blood collection and/or whole brain extraction for pharmacokinetic assay. All animals are maintained and handled as outlined in standard animal care guidelines.
(§3) In the experiments, testing compounds are prepared as suspensions in 0.5% methyl cellulose (Sigma, Cat #M0512, Viscosity 4000 cP at 20° C.) in water, regardless of solubility. Dry powder compounds are initially ground with a glass rod in a test tube in several drops of methyl cellulose to create a paste and to break down any large chunks. After several minutes of grinding, the volume of the suspension is increased to the final concentration desired. The suspension is then sonicated using a Branson sonicator model 3510 in a water bath at room temperature for 15 minutes. Compound suspensions are further vortexed prior to animal dosing. In some of the cases, DMSO is used to initially solubilize compounds in small volumes and then this solution is added to the 0.5% methyl cellulose solution, in order to create more even and less aggregated compound suspensions. The final concentration of DMSO is 3.75%, an amount with no apparent toxicity or neuroprotective effects in our usual rotarod and MES tests. Methyl cellulose/DMSO compound suspensions are identically prepared for intraperitoneally (i.p.) to mice or orally (p.o.) to rat dosing.
Initially the animals are weighed with an electronic scale and then marked. Data recording sheets are generated for each compound assessment. Mice or rats are dosed with the compound suspension at 0.01 mL/g of body weight. The typical injection volume range is between 180-250 μl for mice. […] Rats are p.o. dosed using a flexible feeding tube, typically starting at a compound dose of 5 mg/kg.
A Rodent Electroconvulsive Stimulator (Model 200, Hamit-Darvin-Freesh, Snow Canyon Clinic, Ivins, Utah) is used for MES testing. A 60-Hz alternating current (50 mA for mice; 150 mA for rats) is delivered for 0.2 seconds through corneal electrodes to the mice. A drop of 0.5% tetracaine (Sigma, Cat. #T-7508) solution is placed on the eye prior to current delivery. The electrodes are subsequently placed gently onto the eyes of the animal and the electrical shock is initiated by triggering through a foot-pedal activator. The animals are restrained by hand and gently released as the shock is delivered and the seizure commences. Animals are monitored for hind limb tonic extension as the end point for this test. Current delivery is recorded as a measure of overall seizure-induction potential. Electrical current delivery can vary from approximately 30-55 mA (mice) or 90-160 mA (rats) depending on impedance in the animal and quality of the current delivery (ie. correct placement of the electrodes on the cornea). […]
(In general: The maximal electroshock test induces tonic seizures with an electrical stimulus.)

For assay [2], the system named is rat MES model of epilepsy. Description: Maximal electroshock seizure (MES) test, rat. Particulars: po; rat MES model, dosed orally 1 hour prior to testing; read-out: ED50, inhibition of seizures. It is filed as in vivo.
Source text: as §1, §2, §3
Initially the animals are weighed with an electronic scale and then marked. Data recording sheets are generated for each compound assessment. Mice or rats are dosed with the compound suspension at 0.01 mL/g of body weight. The typical injection volume range is between 180-250 μl for mice. Compounds are dosed by i.p. to mice using a 25 or 22 gauge needle, depending on the viscosity of the suspension. Rats are p.o. dosed using a flexible feeding tube, typically starting at a compound dose of 5 mg/kg.
A Rodent Electroconvulsive Stimulator (Model 200, Hamit-Darvin-Freesh, Snow Canyon Clinic, Ivins, Utah) is used for MES testing. A 60-Hz alternating current (50 mA for mice; 150 mA for rats) is delivered for 0.2 seconds through corneal electrodes to the mice. […] Animals are monitored for hind limb tonic extension as the end point for this test. Current delivery is recorded as a measure of overall seizure-induction potential. […]

Assay [3] deals with T1, KCNQ2 channels (Homo sapiens, UniProt O43526).
T1 construct: expressed in transfected cells; host or cells: CHO cells
Description: Potassium ion efflux, KCNQ2 channels expressed in CHO cells. It is filed as cell-based. The protocol:
Using natively expressed M-currents present in differentiated pheochromocytoma (PC-12) cells and CHO cells transfected with KCNQ2 and hERG potassium channels, the in vitro activity of compound A on potassium ion efflux was determined.
The EC50 values for retigabine and compound A on the activation of KCNQ2 channels expressed in CHO cells were determined on three separate occasions in triplicate.

Assay [4] addresses hERG (Homo sapiens, UniProt Q12809). The assay is described as follows: cell-based.

T1 sequence (O43526 whole entry): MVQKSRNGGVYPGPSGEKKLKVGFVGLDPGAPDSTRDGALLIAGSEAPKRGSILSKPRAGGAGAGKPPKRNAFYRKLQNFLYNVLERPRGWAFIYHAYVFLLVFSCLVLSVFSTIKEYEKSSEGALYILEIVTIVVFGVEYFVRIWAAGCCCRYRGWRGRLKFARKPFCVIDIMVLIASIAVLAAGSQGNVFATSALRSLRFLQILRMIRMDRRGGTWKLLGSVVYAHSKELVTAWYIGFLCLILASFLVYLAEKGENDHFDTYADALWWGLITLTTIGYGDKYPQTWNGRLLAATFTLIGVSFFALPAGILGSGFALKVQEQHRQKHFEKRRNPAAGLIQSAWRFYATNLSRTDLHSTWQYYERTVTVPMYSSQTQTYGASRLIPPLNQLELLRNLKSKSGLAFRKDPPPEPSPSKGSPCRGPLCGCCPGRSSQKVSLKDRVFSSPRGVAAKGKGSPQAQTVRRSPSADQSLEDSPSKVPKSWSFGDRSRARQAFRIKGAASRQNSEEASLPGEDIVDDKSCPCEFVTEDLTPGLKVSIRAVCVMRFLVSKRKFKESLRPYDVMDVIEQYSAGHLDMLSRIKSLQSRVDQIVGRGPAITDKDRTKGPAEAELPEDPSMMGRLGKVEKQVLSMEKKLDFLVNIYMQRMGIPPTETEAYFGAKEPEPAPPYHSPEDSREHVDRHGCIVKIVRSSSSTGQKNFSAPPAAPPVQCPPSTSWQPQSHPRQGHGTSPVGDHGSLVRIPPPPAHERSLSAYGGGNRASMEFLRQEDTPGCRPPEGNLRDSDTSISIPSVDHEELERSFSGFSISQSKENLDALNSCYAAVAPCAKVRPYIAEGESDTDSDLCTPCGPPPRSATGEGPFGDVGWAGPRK
Chain of hERG (Q12809 whole entry): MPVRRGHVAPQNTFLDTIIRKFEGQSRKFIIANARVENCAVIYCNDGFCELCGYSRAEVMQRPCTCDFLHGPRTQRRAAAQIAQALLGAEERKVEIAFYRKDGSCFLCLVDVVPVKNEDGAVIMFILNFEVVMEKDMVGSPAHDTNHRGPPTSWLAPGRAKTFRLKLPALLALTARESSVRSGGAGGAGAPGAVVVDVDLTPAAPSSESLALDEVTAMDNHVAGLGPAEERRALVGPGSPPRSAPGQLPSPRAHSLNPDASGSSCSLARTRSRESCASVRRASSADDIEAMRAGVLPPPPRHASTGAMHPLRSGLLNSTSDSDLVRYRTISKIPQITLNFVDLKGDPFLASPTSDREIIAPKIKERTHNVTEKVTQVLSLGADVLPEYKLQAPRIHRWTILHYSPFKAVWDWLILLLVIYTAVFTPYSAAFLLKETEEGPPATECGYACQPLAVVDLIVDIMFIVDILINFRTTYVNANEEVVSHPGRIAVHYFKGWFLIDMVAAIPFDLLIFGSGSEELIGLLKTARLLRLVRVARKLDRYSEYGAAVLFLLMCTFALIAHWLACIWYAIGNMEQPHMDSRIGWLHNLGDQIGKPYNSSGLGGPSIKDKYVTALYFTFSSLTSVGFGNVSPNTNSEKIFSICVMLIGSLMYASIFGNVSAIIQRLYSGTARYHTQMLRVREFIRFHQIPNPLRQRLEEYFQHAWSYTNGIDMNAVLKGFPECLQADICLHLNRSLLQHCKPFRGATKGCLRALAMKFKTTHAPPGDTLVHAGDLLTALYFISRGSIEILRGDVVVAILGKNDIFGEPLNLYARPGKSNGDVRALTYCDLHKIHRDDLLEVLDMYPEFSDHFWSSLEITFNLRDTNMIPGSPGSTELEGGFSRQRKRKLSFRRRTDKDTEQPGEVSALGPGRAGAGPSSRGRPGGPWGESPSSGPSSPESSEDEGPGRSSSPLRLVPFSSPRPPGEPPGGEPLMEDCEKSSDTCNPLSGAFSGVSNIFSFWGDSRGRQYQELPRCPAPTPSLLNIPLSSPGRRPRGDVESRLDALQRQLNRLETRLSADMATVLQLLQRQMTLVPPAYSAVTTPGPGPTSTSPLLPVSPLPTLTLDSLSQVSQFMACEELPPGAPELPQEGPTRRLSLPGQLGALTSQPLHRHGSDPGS

Usually ED50 stands for the dose at which the effect has come halfway, by size or by number of responders. Usually EC50 stands for the concentration giving half of the maximal effect. High values mean weaker potency, low ones greater potency. `Cc1cc(N2CCc3cc(F)ccc3C2)cc(C)c1NC(=O)CC(C)(C)C` [compound A, N-[4-(6-fluoro-3,4-dihydro-1H-isoquinolin-2-yl)-2,6-dimethylphenyl]-3,3-dimethyl butanamide]: the ED50 in assay [1] came to 2.2 mg/kg; in assay [2], 1.1 mg/kg. In addition, the EC50 in assay [3] is 11 nM; in assay [4], over 30000 nM.
